Results: publication PMC11631053, “A receptor-based assay to study the sweet and bitter tastes of sweeteners and binary sweet blends: the SWEET project” (Chemical Senses, 2024)

Columns and labels:
[1] = tested on: 25 human TAS2Rs; test: Screen of the 25 human TAS2Rs, calcium mobilization in HEK293T-Gα16gust44 cells; type: cell-based; conditions: for activation of any TAS2Rs: at the maximal tested concentration (Table 4); for number of TAS2Rs activated: of the 25 human TAS2Rs
Method: The activation of the 25 human TAS2Rs by the 9 selected sweeteners (excluding sucrose) was examined by using HEK293T-Gα16gust44 cells. Cellular responses were measured after cell stimulation with various concentrations of the sweeteners.

[2] = target: T1, TAS2R5 (Homo sapiens, UniProt Q9NYW4); test: Calcium mobilization assay, HEK293T-Gα16gust44 cells expressing TAS2R5; conditions: maximal concentration tested: sucralose 100 mM, neotame 30 µM, Ace-K 300 mM, RebA 4 mM, RebM 4 mM, mogroside V 5 mM, erythritol 200 mM, D-allulose 500 mM, thaumatin 100 mM
T1 sequence (Q9NYW4 1-299): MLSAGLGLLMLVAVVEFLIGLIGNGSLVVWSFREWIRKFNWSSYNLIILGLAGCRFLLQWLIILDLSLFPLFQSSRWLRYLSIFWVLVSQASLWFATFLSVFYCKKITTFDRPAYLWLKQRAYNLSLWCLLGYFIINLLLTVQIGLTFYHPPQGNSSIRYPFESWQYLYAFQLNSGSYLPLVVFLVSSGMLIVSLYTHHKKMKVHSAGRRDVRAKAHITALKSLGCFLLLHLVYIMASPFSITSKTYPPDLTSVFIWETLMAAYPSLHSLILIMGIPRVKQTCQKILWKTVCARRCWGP
Method: (§1) Different concentration ranges were tested depending on the injected sweet compound. […] All of the concentration-receptor combinations were measured in triplicate, and each experiment was repeated at least 3 times. The Ca^2+ change was expressed as a fractional change in fluorescent light intensity: ΔF/F = (F − F0)/F0, where F was the fluorescent light intensity at each point, and F0 was the value of fluorescent light emitted prior to stimulus application. To calculate dose–response relationships, the changes in fluorescence upon stimulus application were averaged, mock-subtracted and baseline-corrected. The resulting obtained dose–response data were adjusted by using a 4-parameter logistic equation. The half-maximal effective concentration (EC50) was calculated by using SigmaPlot software (Systat Software, San Jose, CA, USA) as described in supplemental Supplementary Figs. S1, S2, and S3.

[3] = target: T2, TAS2R7 (Homo sapiens, UniProt Q9NYW3); test: Calcium mobilization assay, HEK293T-Gα16gust44 cells expressing TAS2R7; conditions: maximal concentration tested: sucralose 100 mM, neotame 30 µM, Ace-K 300 mM, RebA 4 mM, RebM 4 mM, mogroside V 5 mM, erythritol 200 mM, D-allulose 500 mM, thaumatin 100 mM
T2 sequence (Q9NYW3 1-318): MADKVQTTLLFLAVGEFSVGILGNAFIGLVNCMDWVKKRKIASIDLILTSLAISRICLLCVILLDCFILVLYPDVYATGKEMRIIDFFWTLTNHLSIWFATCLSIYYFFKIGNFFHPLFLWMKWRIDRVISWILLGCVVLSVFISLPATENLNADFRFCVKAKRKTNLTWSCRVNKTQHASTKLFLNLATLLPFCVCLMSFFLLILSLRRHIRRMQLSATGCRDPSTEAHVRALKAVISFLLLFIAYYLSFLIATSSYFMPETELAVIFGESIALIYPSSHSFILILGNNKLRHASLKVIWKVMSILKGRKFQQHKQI
Method: as §1

[4] = target: T3, TAS2R8 (Homo sapiens, UniProt Q9NYW2); test: Calcium mobilization assay, HEK293T-Gα16gust44 cells expressing TAS2R8; conditions: maximal concentration tested: sucralose 100 mM, neotame 30 µM, Ace-K 300 mM, RebA 4 mM, RebM 4 mM, mogroside V 5 mM, erythritol 200 mM, D-allulose 500 mM, thaumatin 100 mM
T3 sequence (Q9NYW2 1-309): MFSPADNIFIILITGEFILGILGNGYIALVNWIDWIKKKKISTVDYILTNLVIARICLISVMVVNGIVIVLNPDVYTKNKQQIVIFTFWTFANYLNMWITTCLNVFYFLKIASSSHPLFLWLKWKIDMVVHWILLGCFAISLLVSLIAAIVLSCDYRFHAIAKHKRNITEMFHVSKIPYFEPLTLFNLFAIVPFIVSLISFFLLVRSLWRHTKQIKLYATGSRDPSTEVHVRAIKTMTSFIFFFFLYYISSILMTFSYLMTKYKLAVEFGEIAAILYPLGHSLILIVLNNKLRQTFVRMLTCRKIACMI
Method: as §1

[5] = target: T4, TAS2R31 (Homo sapiens, UniProt P59538); test: Calcium mobilization assay, HEK293T-Gα16gust44 cells expressing TAS2R31; conditions: maximal concentration tested: sucralose 100 mM, neotame 30 µM, Ace-K 300 mM, RebA 4 mM, RebM 4 mM, mogroside V 5 mM, erythritol 200 mM, D-allulose 500 mM, thaumatin 100 mM
T4 sequence (P59538 1-309): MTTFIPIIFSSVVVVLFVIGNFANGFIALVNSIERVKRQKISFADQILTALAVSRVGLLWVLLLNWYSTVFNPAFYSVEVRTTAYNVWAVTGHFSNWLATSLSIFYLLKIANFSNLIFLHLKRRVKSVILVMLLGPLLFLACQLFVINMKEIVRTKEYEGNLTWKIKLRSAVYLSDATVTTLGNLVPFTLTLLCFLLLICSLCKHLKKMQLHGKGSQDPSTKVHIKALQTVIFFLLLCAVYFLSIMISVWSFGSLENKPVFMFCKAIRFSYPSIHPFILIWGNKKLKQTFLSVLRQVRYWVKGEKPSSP
Method: (§2) Different concentration ranges were tested depending on the injected sweet compound. […] All of the concentration-receptor combinations were measured in triplicate, and each experiment was repeated at least 3 times. The Ca^2+ change was expressed as a fractional change in fluorescent light intensity: ΔF/F = (F − F0)/F0, where F was the fluorescent light intensity at each point, and F0 was the value of fluorescent light emitted prior to stimulus application. To calculate dose–response relationships, the changes in fluorescence upon stimulus application were averaged, mock-subtracted and baseline-corrected. The resulting obtained dose–response data were adjusted by using a 4-parameter logistic equation.

[6] = target: T5, TAS2R38 (Homo sapiens, UniProt P59533); test: Calcium mobilization assay, HEK293T-Gα16gust44 cells expressing TAS2R38; conditions: maximal concentration tested: sucralose 100 mM, neotame 30 µM, Ace-K 300 mM, RebA 4 mM, RebM 4 mM, mogroside V 5 mM, erythritol 200 mM, D-allulose 500 mM, thaumatin 100 mM
T5 sequence (P59533 1-333): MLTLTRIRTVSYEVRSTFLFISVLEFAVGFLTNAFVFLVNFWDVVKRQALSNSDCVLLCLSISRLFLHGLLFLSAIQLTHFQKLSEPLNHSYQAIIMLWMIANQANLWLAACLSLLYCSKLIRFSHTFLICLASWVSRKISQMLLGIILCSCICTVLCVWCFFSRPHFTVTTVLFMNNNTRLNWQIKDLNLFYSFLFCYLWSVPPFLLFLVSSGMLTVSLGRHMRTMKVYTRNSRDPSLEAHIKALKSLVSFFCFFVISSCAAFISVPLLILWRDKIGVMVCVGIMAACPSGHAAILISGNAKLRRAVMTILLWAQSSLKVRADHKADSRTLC
Method: as §2

[7] = target: T6, TAS2R39 (Homo sapiens, UniProt P59534); test: Calcium mobilization assay, HEK293T-Gα16gust44 cells expressing TAS2R39; conditions: maximal concentration tested: sucralose 100 mM, neotame 30 µM, Ace-K 300 mM, RebA 4 mM, RebM 4 mM, mogroside V 5 mM, erythritol 200 mM, D-allulose 500 mM, thaumatin 100 mM
T6 sequence (P59534 1-338): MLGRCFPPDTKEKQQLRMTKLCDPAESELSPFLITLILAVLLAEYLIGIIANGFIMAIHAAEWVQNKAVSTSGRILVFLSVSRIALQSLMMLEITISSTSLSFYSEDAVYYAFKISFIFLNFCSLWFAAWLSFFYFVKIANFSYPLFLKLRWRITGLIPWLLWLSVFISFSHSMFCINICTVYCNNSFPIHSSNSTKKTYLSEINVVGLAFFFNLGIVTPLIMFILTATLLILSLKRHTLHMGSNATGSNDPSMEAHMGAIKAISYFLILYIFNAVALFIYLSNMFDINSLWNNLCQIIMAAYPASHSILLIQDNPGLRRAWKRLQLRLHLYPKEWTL
Method: as §2

[8] = target: T7, TAS2R42 (Homo sapiens, UniProt Q7RTR8); test: Calcium mobilization assay, HEK293T-Gα16gust44 cells expressing TAS2R42; conditions: maximal concentration tested: sucralose 100 mM, neotame 30 µM, Ace-K 300 mM, RebA 4 mM, RebM 4 mM, mogroside V 5 mM, erythritol 200 mM, D-allulose 500 mM, thaumatin 100 mM
T7 sequence (Q7RTR8 1-314): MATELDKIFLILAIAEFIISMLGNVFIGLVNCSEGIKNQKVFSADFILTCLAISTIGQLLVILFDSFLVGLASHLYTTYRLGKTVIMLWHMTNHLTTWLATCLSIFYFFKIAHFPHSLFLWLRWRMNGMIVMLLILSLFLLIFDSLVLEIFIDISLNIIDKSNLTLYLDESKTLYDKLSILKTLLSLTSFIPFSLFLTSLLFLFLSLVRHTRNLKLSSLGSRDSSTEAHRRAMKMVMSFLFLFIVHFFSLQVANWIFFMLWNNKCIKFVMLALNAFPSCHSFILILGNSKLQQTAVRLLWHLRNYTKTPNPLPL
Method: as §1

| Response of TAS2R5 [2] | Response of TAS2R7 [3] | Response of TAS2R8 [4] | Response of TAS2R31 [5] | Response of TAS2R38 [6] | Response of TAS2R39 [7] | Response of TAS2R42 [8] | Compound | activation of any TAS2Rs [1] | number of TAS2Rs activated [1] |
| --- | --- | --- | --- | --- | --- | --- | --- | --- | --- |
| − | − | − | − | − | − | − | OC[C@@H](O)[C@@H](O)CO [Erythritol, erythritol] | Neither neotame, RebM, erythritol, or thaumatin activated any TAS2Rs |  |
| − | − | − | §^a | − | − | − | OC[C@H]1O[C@H](O[C@]2(CCl)O[C@H](CCl)[C@@H](O)[C@@H]2O)[C@H](O)[C@@H](O)[C@H]1Cl [Sucralose, sucralose] |  | 3 |
| − | − | − | − | − | − | − | thaumatin | Neither neotame, RebM, erythritol, or thaumatin activated any TAS2Rs |  |
| − | − | − | − | − | − | − | C=C1C[C@@]23CC[C@H]4[C@@](C)(CCC[C@@]4(C)C(=O)O[C@@H]4O[C@H](CO)[C@@H](O)[C@H](O[C@@H]5O[C@H](CO)[C@@H](O)[C@H](O)[C@H]5O)[C@H]4O[C@@H]4O[C@H](CO)[C@@H](O)[C@H](O)[C@H]4O)[C@@H]2CC[C@]1(O[C@@H]1O[C@H](CO)[C@@H](O)[C@H](O[C@@H]2O[C@H](CO)[C@@H](O)[C@H](O)[C@H]2O)[C@H]1O[C@@H]1O[C@H](CO)[C@@H](O)[C@H](O)[C@H]1O)C3 [RebM, Rebaudioside M] | Neither neotame, RebM, erythritol, or thaumatin activated any TAS2Rs |  |
| − | − | − | − | − | − | − | COC(=O)[C@H](Cc1ccccc1)NC(=O)[C@H](CC(=O)O)NCCC(C)(C)C [Neotame] | Neither neotame, RebM, erythritol, or thaumatin activated any TAS2Rs |  |
| − | − | − | #^b | − | − | − | CC1=CC(=O)NS(=O)(=O)O1 [Ace-K, acesulfame-K] |  |  |

| Compound | Response of TAS2R5 [2] | Response of TAS2R7 [3] | Response of TAS2R8 [4] | Response of TAS2R31 [5] | Response of TAS2R38 [6] | Response of TAS2R39 [7] | Response of TAS2R42 [8] | activation of any TAS2Rs [1] | number of TAS2Rs activated [1] |
| --- | --- | --- | --- | --- | --- | --- | --- | --- | --- |
| O=C(CO)[C@H](O)[C@H](O)[C@H](O)CO [D-allulose] | − | − | − | − | + | − | + |  | 7 |
| C[C@H](CC[C@@H](O[C@@H]1O[C@H](CO[C@@H]2O[C@H](CO)[C@@H](O)[C@H](O)[C@H]2O)[C@@H](O)[C@H](O)[C@H]1O[C@@H]1O[C@H](CO)[C@@H](O)[C@H](O)[C@H]1O)C(C)(C)O)[C@H]1CC[C@@]2(C)[C@@H]3CC=C4[C@@H](CC[C@H](O[C@@H]5O[C@H](CO[C@@H]6O[C@H](CO)[C@@H](O)[C@H](O)[C@H]6O)[C@@H](O)[C@H](O)[C@H]5O)C4(C)C)[C@]3(C)[C@H](O)C[C@]12C [Mogroside V, mogroside V] | − | − | − | − | + | − | − |  | 2 |
